Source: patent US20070191627A1, “Stilbene derivatives and their use in medicaments” (priority 2003, published 2007)
Like-named read-outs stand apart in the source and are kept apart here.

Columns and labels:
LNCaP = assay: Clonogenic test series (7 d) in LNCaP prostate cancer cells; format: cell-based; conditions: Homo sapiens, 168 h, LNCaP cells respond to 5-alpha-dihydrotestosterone
[1] = tested on: HL-60 human promyelocyte leukemia cells; assay: Growth inhibition assay in HL-60 cells (72 h, cell count); format: cell-based; conditions: for IC50: Homo sapiens
Protocol: The human promyelocyte leukemia cell line HL-60 was purchased from the ATCC (American Type Culture Collection, Rockville, Md., USA). The cells were cultured in RPMI 1640 medium with 10% heat-inactivated fetal calf serum (FCS) (GIBCO, Grand Island Biological Co., Grand Island, N.Y., USA) and with 1% penicillin/streptomycin in a humidified atmosphere with 5% CO2.
The cell numbers were determined by means of a microcell counter CC-108 (Sysmex, Kobe, Japan). For the tests, cells in the logarithmic growth phase were used.
Logarithmically-growing HL-60 cells were prepared in a density of 0.1×10^6 cells/ml in tissue culture flasks and incubated with various concentrations of the stilbene derivatives to be examined. After 72 hours, the cells were counted by means of the microcell counter. The viability of the cells was determined by means of trypan blue staining. Numbers of viable cells were calculated as results.
After 72 hours, the cells were counted by means of the microcell counter. The viability of the cells was determined by means of trypan blue staining. Numbers of viable cells were calculated as results.

DU-145 = assay: Clonogenic test series (7 d) in DU-145 prostate cancer cells; format: cell-based; conditions: Homo sapiens, DU-145, 168 h
PC-3 = assay: Clonogenic test series (7 d) in PC-3 prostate cancer cells; format: cell-based; conditions: Homo sapiens, PC-3, 168 h
COX 2 = molecular target: T1, COX 2 (Homo sapiens, UniProt P35354); assay: COX (human) inhibitor screening assay, COX 2; format: biochemical; conditions: for COX2/COX1 Ratio: ratio of COX 2 IC50 to COX 1 IC50
T1 construct: purchased IBL Products Company, Hamburg, Germany
T1 sequence (P35354 18-604): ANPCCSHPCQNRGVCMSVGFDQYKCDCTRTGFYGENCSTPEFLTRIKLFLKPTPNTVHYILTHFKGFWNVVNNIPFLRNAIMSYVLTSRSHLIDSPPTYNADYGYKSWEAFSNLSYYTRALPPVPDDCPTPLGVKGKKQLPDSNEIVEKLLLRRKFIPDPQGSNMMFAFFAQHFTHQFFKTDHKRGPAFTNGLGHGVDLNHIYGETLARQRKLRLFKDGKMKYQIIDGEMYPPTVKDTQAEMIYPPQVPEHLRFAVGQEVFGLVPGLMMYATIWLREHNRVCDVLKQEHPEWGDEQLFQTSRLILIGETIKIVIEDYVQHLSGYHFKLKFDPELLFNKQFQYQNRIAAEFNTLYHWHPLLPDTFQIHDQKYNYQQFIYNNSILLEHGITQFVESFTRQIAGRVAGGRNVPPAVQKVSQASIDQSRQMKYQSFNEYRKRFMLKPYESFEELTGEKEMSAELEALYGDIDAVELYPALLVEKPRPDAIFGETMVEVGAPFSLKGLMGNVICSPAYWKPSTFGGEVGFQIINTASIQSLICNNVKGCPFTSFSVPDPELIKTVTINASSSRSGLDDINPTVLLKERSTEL

COX 1 = molecular target: T2, COX 1 (Homo sapiens, UniProt P23219); assay: COX (human) inhibitor screening assay, COX 1; format: biochemical
T2 construct: purchased IBL Products Company, Hamburg, Germany
T2 sequence (P23219 24-599): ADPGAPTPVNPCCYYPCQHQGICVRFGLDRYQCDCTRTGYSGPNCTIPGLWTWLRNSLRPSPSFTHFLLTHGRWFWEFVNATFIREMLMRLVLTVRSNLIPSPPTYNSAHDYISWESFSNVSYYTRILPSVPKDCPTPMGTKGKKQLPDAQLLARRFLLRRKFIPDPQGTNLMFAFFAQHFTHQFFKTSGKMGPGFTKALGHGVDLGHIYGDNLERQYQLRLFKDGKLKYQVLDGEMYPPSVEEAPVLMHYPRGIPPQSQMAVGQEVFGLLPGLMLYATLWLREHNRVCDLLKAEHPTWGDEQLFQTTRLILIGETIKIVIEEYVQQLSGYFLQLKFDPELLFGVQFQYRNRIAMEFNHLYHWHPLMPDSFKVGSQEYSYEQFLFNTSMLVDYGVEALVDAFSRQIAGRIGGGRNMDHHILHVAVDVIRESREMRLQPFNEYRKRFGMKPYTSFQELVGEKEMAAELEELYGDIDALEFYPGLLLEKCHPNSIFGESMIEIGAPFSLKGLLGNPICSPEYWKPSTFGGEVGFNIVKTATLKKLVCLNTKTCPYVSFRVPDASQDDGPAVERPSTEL

HL-60 cells [2] = assay: Apoptosis induction, Hoechst 33258/propidium iodide double staining in HL-60 cells; format: cell-based, human; conditions: 24 hours
Protocol: Then, the cells were treated for one hour with Hoechst 33258 (HO, Sigma, St. Louis, Mo., USA) and propidium iodide (PI, Sigma, St. Louis, Mo., USA) (5 μg/ml and 2 μg/ml). Then, the cells were photographed by means of a fluorescence microscope, and the cells were divided morphologically into early apoptotic, late apoptotic and necrotic cells. […] The results are plotted in FIG. 4.

[3] = tested on: HT-29 human colon tumor cells; assay: Analysis of intracellular dATP pools in HT-29 cells; format: cell-based; conditions: 4 μM, HT-29, average
Protocol: (§1) The analysis of the intracellular dNTP concentrations was carried out according to the method of Garrett and Santi (Garrett, C.; Santi, D. V. A Rapid and Sensitive High-Pressure Liquid Chromatography Assay for Deoxyribonucleoside Triphosphates in Cell Extracts. Anal Biochem. 1979 Nov. 1; 99(2): 268-73.)
(§2) The action of hexahydroxystilbene (“M8”) on the intracellular dNTP concentrations in HL-60 cells was examined. The study was performed as described above. The cells were incubated with 6.25, 12.5 and 25 μM of hexahydroxystilbene, and then the dNTP pools were determined. […] The dATP concentrations dropped during treatment with 12.5 and 25 μM of hexahydroxystilbene to 27 and 41% of the starting values. The depletion of the dATP pools was especially impressive in the case of HT-29 human colon tumor cells; the dATP values dropped there as early as after treatment with 4 μM of the substance in an average of 1.5% of the starting values. […] The action of the substance can also be clarified by this impressive imbalance of the dNTP pools that are precursors of the DNA synthesis. The results of the experiment with HL-60 cells are plotted in FIG. 3.

HL-60 cells [4] = assay: Cell cycle distribution by FACS in HL-60 cells; format: cell-based, human; conditions: 24 hours
Protocol: HL-60 cells were incubated in the presence of hexahydroxystilbene. After 24 hours, the cells were washed, centrifuged and fixed in alcohol. Then, […] and examined by means of FACS analysis. Then, the cell cycle phase distribution was calculated.

HL-60 cells [5] = assay: Analysis of intracellular dNTP pools by HPLC in HL-60 cells; format: cell-based, human
Protocol: as §1, §2

[6] = HL-60, Table 3, 72 h, read-out: Growth inhibition (72 h) HL-60
[7] = HL-60, 1st determination series, 72 hours, read-out: IC50 (μM), inhibition of growth of HL-60 human promyelocyte leukemia cells
[8] = HL-60, read-out: IC50 (50% inhibition of cell growth), HL-60, 2nd determination series, 72 hours of incubation

SMILES	IC50 (LNCaP) [µM]	IC50 [1, 6] [µM]	IC50 (DU-145) [µM]	IC50 (PC-3) [µM]	IC50 [1, 7] [µM]	IC50 (COX 2) [µM]	COX2/COX1 Ratio (COX 2)	IC50 (COX 1) [µM]	further results
COc1cc(C=Cc2cc(OC)cc(OC)c2)cc(OC)c1 [M1, 3,3′,5,5′-Tetramethoxystilbene]	21	> 100	25	35	–	–	–	–	–
COc1cc(C=Cc2cc(OC)c(OC)c(OC)c2)cc(OC)c1 [M2, 3,3′,4,5,5′-Pentamethoxystilbene]	> 100	25	68	21	25	0.6	0.06	10	–
COc1cc(C=Cc2cc(OC)c(OC)c(OC)c2)cc(OC)c1OC [M3, 3,3′,4,4′,5,5′-Hexamethoxystilbene]	37	> 100	12.5	5.5	> 100	0.5	0.05	10	–
COc1ccc(C=Cc2cc(OC)c(OC)c(OC)c2)cc1 [M4, 3,4,4′,5-Tetramethoxystilbene]	0.4	20	0.4	3	–	–	–	–	–
COc1cccc(C=Cc2cc(OC)cc(OC)c2)c1 [M5, 3,3′,5-Trimethoxystilbene]	6.25	5	6	3	–	–	–	–	–
COc1cc(C=Cc2ccc(OC)c(OC)c2)cc(OC)c1 [M5A, 3,3′,4′,5-Tetramethoxystilbene]	6.25	25	30	35	–	–	–	–	–
Oc1cc(O)cc(C=Cc2cc(O)cc(O)c2)c1 [M6, 3,3′,5,5′-Tetrahydroxystilbene]	84	12.5	17	16	12.5	< 0.001	<0.1	0.01	–
Oc1cc(O)cc(C=Cc2cc(O)c(O)c(O)c2)c1 [M7, 3,3′,4,5,5′-Pentahydroxystilbene]	7.5	10	23	5	10	0.005	0.5	0.01	–
O=C1O[C@H]([C@@H](O)CO)C(O)=C1O [Vitamin C, reference compound]	–	–	–	–	–	–	–	–	Action on cell growth of HL-60, in words ([1]; 50 or 100 μM, alone): no action on the cell growth

Continued, in another order:

IC50 (LNCaP) [µM]	IC50 [1, 6] [µM]	IC50 (DU-145) [µM]	IC50 (PC-3) [µM]	IC50 [1, 7] [µM]	IC50 (COX 2) [µM]	COX2/COX1 Ratio (COX 2)	IC50 (COX 1) [µM]	SMILES	further results
3.4	4	25	2.5	4	0.001	–	0.5	Oc1cc(C=Cc2cc(O)c(O)c(O)c2)cc(O)c1O [M8, 3,3′,4,4′,5,5′-Hexahydroxystilbene]	IC50 [1, 8]: 6.25 µM; IC50 ([1]; HL-60, adding 50 or 100 μM of vitamin C, read-out: IC50 of growth inhibition, HL-60, with added vitamin C): 2 µM; Cells with induction of apoptosis (HL-60 cells [2]; 6.25 μM): 68.5%; Apoptosis induction compared with resveratrol, in words (HL-60 cells [2]): induced apoptosis in these cells in the case of significantly lower concentrations than resveratrol; dATP values, % of the starting values [3]: 1.5%; Cell cycle distribution, G2-M phase, in words (HL-60 cells [4]): a depletion of cells resulted in the G2-M phase; Cell cycle distribution, S phase, in words (HL-60 cells [4]): stopped the cells in S phase; dCTP pools, % of the control values (HL-60 cells [5]; 6.25 μM): 110%; dTTP pools, % of the starting values (HL-60 cells [5]; 6.25 μM): 84%; dATP concentrations, % of the starting values (HL-60 cells [5]; 12.5 μM): 27%; dCTP pools, % of the control values (HL-60 cells [5]; 12.5 μM): 137%; dTTP pools, % of the starting values (HL-60 cells [5]; 12.5 μM): 72%; dATP concentrations, % of the starting values (HL-60 cells [5]; 25 μM): 41%; dCTP pools, % of the control values (HL-60 cells [5]; 25 μM): 199%; dTTP pools, % of the starting values (HL-60 cells [5]; 25 μM): 27%
9.5	9	30	8	9	0.01	0.002	5	Oc1ccc(C=Cc2cc(O)c(O)c(O)c2)cc1 [M9, 3,4,4′,5-Tetrahydroxystilbene]	–
33	9	58	18	9	0.005	–	5	Oc1cc(O)cc(C=Cc2ccc(O)c(O)c2)c1 [M10, 3,3′,4′,5-Tetrahydroxystilbene]	–
5	12	10	16	12	–	–	–	Oc1ccc(C=Cc2cc(O)cc(O)c2)cc1 [Resveratrol, 3,4′,5-Trihydroxystilbene, reference compound]	IC50 [1, 8]: 12 µM
